The values that follow come from US7470684B2, “Spiropiperidine derivatives as NK3 antagonists” (Hoffmann-La Roche Inc., priority 2007, dated 2008).

Counter-ions that a name gives are not always drawn. Like-named read-outs stand apart in the source and are kept apart here.

The experiment has as its target T1, human NK3 receptor (Homo sapiens, UniProt P29371).
T1 construct: expressed in transfected cells; host or cells: HEK293 cells, transiently transfected; membranes
T1 sequence (P29371 1-465): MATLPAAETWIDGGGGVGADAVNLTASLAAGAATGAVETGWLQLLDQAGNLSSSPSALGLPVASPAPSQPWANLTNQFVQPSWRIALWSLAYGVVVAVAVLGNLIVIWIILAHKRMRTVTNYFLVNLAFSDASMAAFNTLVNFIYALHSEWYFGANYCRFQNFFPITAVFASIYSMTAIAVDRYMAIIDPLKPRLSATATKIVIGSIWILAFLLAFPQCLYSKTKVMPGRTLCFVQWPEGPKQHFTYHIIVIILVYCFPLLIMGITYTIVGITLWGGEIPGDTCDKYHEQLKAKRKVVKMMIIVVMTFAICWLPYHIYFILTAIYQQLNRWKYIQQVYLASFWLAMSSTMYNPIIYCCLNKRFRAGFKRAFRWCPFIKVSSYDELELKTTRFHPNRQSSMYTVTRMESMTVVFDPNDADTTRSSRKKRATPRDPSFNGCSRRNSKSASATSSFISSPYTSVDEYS
Nature of the experiment: [3H]SR142801 competition binding assay. Summed up: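 Membranes from HEK293 cells transiently expressing human NK3 receptor incubated 75 min at RT with [3H]SR142801 at its KD and compound (0.0003-10 μM) in pH 7.4 Tris/MnCl2 buffer. Filtration and scintillation counting, nonspecific binding with 10 μM SB222200. IC50 from Hill fit, Ki by Cheng-Prusoff, duplicates.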

Where [1] appears, read: hNK3 Ki, [3H]SR142801 displacement, membranes of HEK293 cells transiently expressing recombinant human NK3 receptor.
[2] abbreviates: [3H]SR142801 displacement, membranes of HEK293 cells transiently expressing recombinant human NK3 receptor, read-out: hNK3 Ki.

Take `CN(Cc1cccc(F)c1)C(=O)C(CCN1CCC2(CC1)OC(=O)N(C)c1ccc(F)cc12)c1ccc(Cl)c(Cl)c1` (centres unmarked) [Example 101, 2-(3,4-dichlorophenyl)-N-(3-fluorobenzyl)-4-(6-fluoro-1-methyl-2-oxo-1,2-dihydro-1′H-spiro[3,1-benzoxazine-4,4′-piperidin]-1′-yl)-N-methyl-butanamide]: the inhibition constant Ki under setting [1] turned out to be 0.0013 µM.
For `CN(Cc1cccc(C(F)(F)F)c1)C(=O)C(CCN1CCC2(CC1)OC(=O)Nc1ccc(F)cc12)c1ccc(F)cc1` (centres unmarked) [Example 58, 4-(6-fluoro-2-oxo-1,2-dihydro-1′H-spiro[3,1-benzoxazine-4,4′-piperidin]-1′-yl)-2-(4-fluorophenyl)-N-methyl-N-[3-(trifluoromethyl)benzyl]butanamide], the inhibition constant Ki under setting [1] was 0.0949 µM.
As to `CCN(Cc1ccccc1F)C(=O)C(CCN1CCC2(CC1)OC(=O)Nc1ccc(F)cc12)c1ccc(Cl)c(Cl)c1` (centres unmarked) [Example 12, 2-(3,4-dichlorophenyl)-N-ethyl-N-(2-fluorobenzyl)-4-(6-fluoro-2-oxo-1,2-dihydro-1′H-spiro[3,1-benzoxazine-4,4′-piperidin]-1′-yl)butanamide], the inhibition constant Ki under setting [1] is 0.0312 µM.
The same measure, in the same setting: as for `CN(Cc1ccccc1)C(=O)C(CCN1CCC2(CC1)OC(=O)Nc1ccc(F)cc12)c1ccc(Cl)c(Cl)c1` (centres unmarked) [Example 64, N-benzyl-2-(3,4-dichlorophenyl)-4-(6-fluoro-2-oxo-1,2-dihydro-1′H-spiro[3,1-benzoxazine-4,4′-piperidin]-1′-yl)-N-methylbutanamide], the figure is 0.0125 µM.
The same measure, in the same setting: as for `C[C@H](NC(=O)[C@H](CCN1CCC2(CC1)OC(=O)Nc1ccc(F)cc12)c1ccc(Cl)c(Cl)c1)c1ccccc1` [Example 146, (2R)-2-(3,4-dichlorophenyl)-4-(6-fluoro-2-oxo-1,2-dihydro-1′H-spiro[3,1-benzoxazine-4,4′-piperidin]-1′-yl)-N-[(1S)-1-phenylethyl]butanamidehydrochloride], the figure is 0.0057 µM; as for `O=C1Nc2ccc(F)cc2C2(CCN(CCC(C(=O)NCc3ccc(Cl)cc3Cl)c3ccc(F)cc3)CC2)O1` (centres unmarked) [Example 47, N-(2,4-dichlorobenzyl)-4-(6-fluoro-2-oxo-1,2-dihydro-1′H-spiro[3,1-benzoxazine-4,4′-piperidin]-1′-yl)-2-(4-fluorophenyl)butanamide], 0.0827 µM.
On the same count and under the same terms, the value for `CN1C(=O)OC2(CCN(CCC(C(=O)NCc3ccc(Cl)cc3)c3ccc(Cl)c(Cl)c3)CC2)c2cc(F)ccc21` (centres unmarked) [Example 34, N-(4-chlorobenzyl)-2-(3,4-dichlorophenyl)-4-(6-fluoro-1-methyl-2-oxo-1,2-dihydro-1′H-spiro[3,1-benzoxazine-4,4′piperidin]-1′-yl)-butanamide] was 0.0033 µM.
Turning to `CN1C(=O)OC2(CCN(CCC(C(=O)NCc3ccc(-c4csnn4)cc3)c3ccc(Cl)c(Cl)c3)CC2)c2cc(F)ccc21` (centres unmarked) [Example 109, 2-(3,4-dichlorophenyl)-4-(6-fluoro-1-methyl-2-oxo-1,2-dihydro-1′H-spiro[3,1-benzoxazine-4,4′-piperidin]-1′-yl)-N-[4-(1,2,3-thiadiazol-4-yl)benzyl]butanamide], the Ki under setting [2] is 0.019 µM.
Regarding `Cc1ccc(CNC(=O)C(CCN2CCC3(CC2)OC(=O)N(C)c2ccc(F)cc23)c2ccc(Cl)c(Cl)c2)cc1` (centres unmarked) [Example 31, 2-(3,4-dichlorophenyl)-4-(6-fluoro-1-methyl-2-oxo-1,2-dihydro-1′H-spiro[3,1-benzoxazine-4,4′-piperidin]-1′-yl)-N-(4-methylbenzyl)butanamide], under setting [1], the Ki came out at 0.0058 µM.
Still for that read-out and setting: the value for `O=C1Nc2ccc(F)cc2C2(CCN(CCC(C(=O)NCc3cccc(C(F)(F)F)c3)c3ccc(Cl)c(Cl)c3)CC2)O1` (centres unmarked) [Example 83, 2-(3,4-dichlorophenyl)-4-(6-fluoro-2-oxo-1,2-dihydro-1′H-spiro[3,1-benzoxazine-4,4′-piperidin]-1′-yl)-N-[3-(trifluoromethyl)benzyl]butanamide] was 0.0129 µM; that for `CN1C(=O)OC2(CCN(CCC(C(=O)NCc3ccc(Cl)cc3Cl)c3ccc(Cl)c(Cl)c3)CC2)c2cc(F)ccc21` (centres unmarked) [Example 87, N-(2,4-dichlorobenzyl)-2-(3,4-dichlorophenyl)-4-(6-fluoro-1-methyl-2-oxo-1,2-dihydro-1′H-spiro[3,1-benzoxazine-4,4′-piperidin]-1′-yl)butanamide] was 0.0021 µM; that for `CN1C(=O)OC2(CCN(CCC(C(=O)NCc3ccccc3)c3ccc(Cl)c(Cl)c3)CC2)c2cc(F)ccc21` (centres unmarked) [Example 32, N-benzyl-2-(3,4-dichlorophenyl)-4-(6-fluoro-1-methyl-2-oxo-1,2-dihydro-1′H-spiro[3,1-benzoxazine-4,4′-piperidin]-1′-yl)-butanamide] was 0.0039 µM.
For `CN(Cc1ccc(F)cc1)C(=O)C(CCN1CCC2(CC1)OC(=O)N(C)c1ccc(F)cc12)c1ccc(Cl)c(Cl)c1` (centres unmarked) [Example 105, 2-(3,4-dichlorophenyl)-N-(4-fluorobenzyl)-4-(6-fluoro-1-methyl-2-oxo-1,2-dihydro-1′H-spiro[3,1-benzoxazine-4,4′-piperidin]-1′-yl)-N-methyl-butanamide], under setting [1], the inhibition constant (Ki) came out at 0.001 µM.
Take `CN(Cc1ccc(Cl)cc1)C(=O)C(CCN1CCC2(CC1)OC(=O)N(C)c1ccc(F)cc12)c1ccc(Cl)c(Cl)c1` (centres unmarked) [Example 42, N-(4-chlorobenzyl)-2-(3,4-dichlorophenyl)-4-(6-fluoro-1-methyl-2-oxo-1,2-dihydro-1′H-spiro[3,1-benzoxazine-4,4′-piperidin]-1′-yl)-N-methylbutanamide]: the Ki was 0.0008 µM.
Regarding `O=C1Nc2ccc(F)cc2C2(CCN(CCC(C(=O)NCc3ccccc3OC(F)(F)F)c3ccc(F)cc3)CC2)O1` (centres unmarked) [Example 49, 4-(6-fluoro-2-oxo-1,2-dihydro-1′H-spiro[3,1-benzoxazine-4,4′-piperidin]-1′-yl)-2-(4-fluorophenyl)-N-[2-(trifluoromethoxy)benzyl]butanamide], the inhibitory constant (Ki) under setting [1] came to 0.0909 µM.
As to `CN(Cc1ccc(Cl)cc1)C(=O)C(CCN1CCC2(CC1)OC(=O)Nc1ccc(F)cc12)c1ccc(F)cc1` (centres unmarked) [Example 26, N-(4-chlorobenzyl)-4-(6-fluoro-2-oxo-1,2-dihydro-1′H-spiro[3,1-benzoxazine-4,4′-piperidin]-1′-yl)-2-(4-fluorophenyl)-N-methylbutanamide], the Ki under setting [1] worked out at 0.0383 µM.
The same measure, in the same setting: the value for `O=C1Nc2ccc(F)cc2C2(CCN(CCC(C(=O)NCc3cccc(OC(F)(F)F)c3)c3ccc(Cl)c(Cl)c3)CC2)O1` (centres unmarked) [Example 78, 2-(3,4-dichlorophenyl)-4-(6-fluoro-2-oxo-1,2-dihydro-1′H-spiro[3,1-benzoxazine-4,4′-piperidin]-1′-yl)-N-[(3-trifluoromethoxy)benzyl]butanamide] was 0.0154 µM; that for `CN(Cc1ccc(Cl)cc1)C(=O)C(CCN1CCC2(CC1)OC(=O)Nc1ccc(F)cc12)c1ccc(Cl)c(Cl)c1` (centres unmarked) [Example 15, N-(4-chlorobenzyl)-2-(3,4-dichlorophenyl)-4-(6-fluoro-2-oxo-1,2-dihydro-1′H-spiro[3,1-benzoxazine-4,4′-piperidin]-1′-yl)-N-methylbutanamide] was 0.0037 µM.
On the same count and under the same terms, the value for `CN(Cc1ccc(Cl)cc1)C(=O)C(CCCN1CCC2(CC1)OC(=O)Nc1ccc(F)cc12)c1ccc(Cl)c(Cl)c1` (centres unmarked) [Example 120, N-(4-chlorobenzyl)-2-(3,4-dichlorophenyl)-5-(6-fluoro-2-oxo-1,2-dihydro-1′H-spiro[3,1-benzoxazine-4,4′-piperidin]-1′-yl)-N-methylpentanamide] was 0.0463 µM.
In the case of `CN(CCc1ccccc1)C(=O)C(CCN1CCC2(CC1)OC(=O)Nc1ccc(F)cc12)c1ccc(Cl)c(Cl)c1` (centres unmarked) [Example 65, 2-(3,4-dichlorophenyl)-4-(6-fluoro-2-oxo-1,2-dihydro-1′H-spiro[3,1-benzoxazine-4,4′-piperidin]-1′-yl)-N-methyl-N-(2-phenylethyl)butanamide], the Ki under setting [2] was found to be 0.0707 µM.
`N#Cc1ccc(CNC(=O)C(CCN2CCC3(CC2)OC(=O)Nc2ccc(F)cc23)c2ccc(Cl)c(Cl)c2)cc1` (centres unmarked) [Example 86, N-(4-cyanobenzyl)-2-(3,4-dichlorophenyl)-4-(6-fluoro-2-oxo-1,2-dihydro-1′H-spiro[3,1-benzoxazine-4,4′-piperidin]-1′-yl)butanamide]: under setting [1], the Ki turned out to be 0.0121 µM.
The same measure, in the same setting: the value for `O=C1Nc2ccc(F)cc2C2(CCN(CCC(C(=O)NCc3ccc(-c4csnn4)cc3)c3ccc(Cl)c(Cl)c3)CC2)O1` (centres unmarked) [Example 84, 2-(3,4-dichlorophenyl)-4-(6-fluoro-2-oxo-1,2-dihydro-1′H-spiro[3,1-benzoxazine-4,4′-piperidin]-1′-yl)-N-[4-(1,2,3-thiadiazol-4-yl)benzyl]butanamide] was 0.0116 µM.
`O=C1Nc2ccc(F)cc2C2(CCN(CCC(C(=O)NCc3cccc(C(F)(F)F)c3)c3ccc(F)cc3)CC2)O1` (centres unmarked) [Example 61, 4-(6-fluoro-2-oxo-1,2-dihydro-1′H-spiro[3,1-benzoxazine-4,4′-piperidin]-1′-yl)-2-(4-fluorophenyl)-N-[3-(trifluoromethyl)benzyl]butanamide] came in with a Ki of 0.0885 µM.
